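Cells were grown in 96-well plates and exposed to each compound for 48 hours at five concentrations; endpoints were interpolated linearly between bracketing concentrations, or set to the highest concentration if not reached. Abbreviation: GI50, concentration required for 50% inhibition of growth. TGI: concentration producing complete growth inhibition.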
Columns and labels:
Assay in all cases: NCI-60 cell line screen, 48 h
SK-MEL-5 melanoma = system: SK-MEL-5 melanoma
786-0 renal = system: 786-0 renal
COLO 205 colon = system: COLO 205 colon
RXF 393 renal = system: RXF 393 renal
LOX IMVI melanoma = system: LOX IMVI melanoma
HOP-62 NSCLC = system: HOP-62 NSCLC
KM12 colon = system: KM12 colon
TK-10 renal = system: TK-10 renal
SNB-19 CNS = system: SNB-19 CNS
SF-268 CNS = system: SF-268 CNS
SF-539 CNS = system: SF-539 CNS
HCT-15 colon = system: HCT-15 colon
IGROV1 ovarian = system: IGROV1 ovarian
MOLT-4 leukemia = system: MOLT-4 leukemia
MDA-MB-435 = system: MDA-MB-435
T-47D breast = system: T-47D breast
CAKI-1 renal = system: CAKI-1 renal
NCI/ADR-RES ovarian = system: NCI/ADR-RES ovarian
ACHN renal = system: ACHN renal
U251 CNS = system: U251 CNS
K-562 leukemia = system: K-562 leukemia
BT-549 breast = system: BT-549 breast
SK-MEL-28 melanoma = system: SK-MEL-28 melanoma
A498 renal = system: A498 renal
SK-MEL-2 melanoma = system: SK-MEL-2 melanoma
NCI-H226 lung = system: NCI-H226 lung
EKVX NSCLC = system: EKVX NSCLC
HCC-2998 colon = system: HCC-2998 colon
OVCAR-8 ovarian = system: OVCAR-8 ovarian
M14 melanoma = system: M14 melanoma
HL-60(TB) leukemia = system: HL-60(TB) leukemia
MDA-MB-468 breast = system: MDA-MB-468 breast
OVCAR-3 ovarian = system: OVCAR-3 ovarian
MCF7 breast = system: MCF7 breast
HCT-116 colon = system: HCT-116 colon
OVCAR-4 ovarian = system: OVCAR-4 ovarian
NCI-H23 lung = system: NCI-H23 lung
HS 578T breast = system: HS 578T breast
PC-3 prostate = system: PC-3 prostate
UACC-62 melanoma = system: UACC-62 melanoma
A549 NSCLC = system: A549 NSCLC
CCRF-CEM leukemia = system: CCRF-CEM leukemia
SF-295 CNS = system: SF-295 CNS
NCI-H522 lung = system: NCI-H522 lung
OVCAR-5 ovarian = system: OVCAR-5 ovarian
HOP-92 NSCLC = system: HOP-92 NSCLC
UACC-257 melanoma = system: UACC-257 melanoma
SNB-75 CNS = system: SNB-75 CNS
DU-145 prostate = system: DU-145 prostate
MDA-MB-231 breast = system: MDA-MB-231 breast
SR leukemia = system: SR leukemia
UO-31 renal = system: UO-31 renal
SW-620 colon = system: SW-620 colon
NCI-H460 lung = system: NCI-H460 lung
SK-OV-3 ovarian = system: SK-OV-3 ovarian
RPMI-8226 leukemia = system: RPMI-8226 leukemia
MALME-3M melanoma = system: MALME-3M melanoma
SN12C renal = system: SN12C renal

O=C(N/N=C/c1ccc(Cl)o1)c1[nH]c2ccc(Br)cc2c1-c1ccccc1
GI50 (SK-MEL-5 melanoma): 247 nM | TGI (SK-MEL-5 melanoma): 889 nM | GI50 (786-0 renal): 443 nM | TGI (786-0 renal): 8540 nM | GI50 (COLO 205 colon): 245 nM | TGI (COLO 205 colon): 549 nM | GI50 (RXF 393 renal): 397 nM | TGI (RXF 393 renal): 26100 nM | GI50 (LOX IMVI melanoma): 276 nM | TGI (LOX IMVI melanoma): 14900 nM | GI50 (HOP-62 NSCLC): 472 nM | TGI (HOP-62 NSCLC): 27400 nM | GI50 (KM12 colon): 393 nM | TGI (KM12 colon): > 100000 nM | GI50 (TK-10 renal): 8980 nM | TGI (TK-10 renal): 37200 nM | GI50 (SNB-19 CNS): 442 nM | TGI (SNB-19 CNS): > 100000 nM | GI50 (SF-268 CNS): 575 nM | TGI (SF-268 CNS): > 48100 nM | GI50 (SF-539 CNS): 212 nM | TGI (SF-539 CNS): 625 nM | GI50 (HCT-15 colon): 343 nM | TGI (HCT-15 colon): 33600 nM | GI50 (IGROV1 ovarian): 401 nM | TGI (IGROV1 ovarian): > 94900 nM | GI50 (MOLT-4 leukemia): 405 nM | TGI (MOLT-4 leukemia): > 51600 nM | GI50 (MDA-MB-435): 170 nM | TGI (MDA-MB-435): 542 nM | GI50 (T-47D breast): 4530 nM | TGI (T-47D breast): > 100000 nM | GI50 (CAKI-1 renal): 389 nM | TGI (CAKI-1 renal): 17900 nM | GI50 (NCI/ADR-RES ovarian): 168 nM | TGI (NCI/ADR-RES ovarian): 514 nM | GI50 (ACHN renal): 523 nM | TGI (ACHN renal): 21000 nM | GI50 (U251 CNS): 340 nM | TGI (U251 CNS): 28100 nM | GI50 (K-562 leukemia): 251 nM | TGI (K-562 leukemia): > 100000 nM | GI50 (BT-549 breast): 295 nM | TGI (BT-549 breast): 1750 nM | GI50 (SK-MEL-28 melanoma): 993 nM | TGI (SK-MEL-28 melanoma): > 61200 nM | GI50 (A498 renal): 20100 nM | TGI (A498 renal): 48900 nM | GI50 (SK-MEL-2 melanoma): 423 nM | TGI (SK-MEL-2 melanoma): > 100000 nM | GI50 (NCI-H226 lung): 619 nM | TGI (NCI-H226 lung): 29600 nM | GI50 (EKVX NSCLC): 585 nM | TGI (EKVX NSCLC): > 100000 nM | GI50 (HCC-2998 colon): 380 nM | TGI (HCC-2998 colon): 35100 nM | GI50 (OVCAR-8 ovarian): 298 nM | TGI (OVCAR-8 ovarian): 3180 nM | GI50 (M14 melanoma): 278 nM | TGI (M14 melanoma): 23100 nM | GI50 (HL-60(TB) leukemia): 235 nM | TGI (HL-60(TB) leukemia): 713 nM | GI50 (MDA-MB-468 breast): 276 nM | TGI (MDA-MB-468 breast): 6370 nM | GI50 (OVCAR-3 ovarian): 367 nM | TGI (OVCAR-3 ovarian): 14700 nM | GI50 (MCF7 breast): 292 nM | TGI (MCF7 breast): > 100000 nM | GI50 (HCT-116 colon): 128 nM | TGI (HCT-116 colon): 3520 nM | GI50 (OVCAR-4 ovarian): 3810 nM | TGI (OVCAR-4 ovarian): 40200 nM | GI50 (NCI-H23 lung): 417 nM | TGI (NCI-H23 lung): 27300 nM | GI50 (HS 578T breast): 264 nM | TGI (HS 578T breast): 16600 nM | GI50 (PC-3 prostate): 402 nM | TGI (PC-3 prostate): > 100000 nM | GI50 (UACC-62 melanoma): 346 nM | TGI (UACC-62 melanoma): > 85900 nM | GI50 (A549 NSCLC): 383 nM | TGI (A549 NSCLC): 32400 nM | GI50 (CCRF-CEM leukemia): 351 nM | TGI (CCRF-CEM leukemia): 20200 nM | GI50 (SF-295 CNS): 331 nM | TGI (SF-295 CNS): > 49700 nM | GI50 (NCI-H522 lung): 137 nM | TGI (NCI-H522 lung): 463 nM | GI50 (OVCAR-5 ovarian): 388 nM | TGI (OVCAR-5 ovarian): 22100 nM | GI50 (HOP-92 NSCLC): 4200 nM | TGI (HOP-92 NSCLC): 43200 nM | GI50 (UACC-257 melanoma): 3400 nM | TGI (UACC-257 melanoma): > 100000 nM | GI50 (SNB-75 CNS): 309 nM | TGI (SNB-75 CNS): 18300 nM | GI50 (DU-145 prostate): 382 nM | TGI (DU-145 prostate): 13300 nM | GI50 (MDA-MB-231 breast): 316 nM | TGI (MDA-MB-231 breast): 12100 nM | GI50 (SR leukemia): 458 nM | TGI (SR leukemia): > 100000 nM | GI50 (UO-31 renal): 627 nM | TGI (UO-31 renal): 25900 nM | GI50 (SW-620 colon): 378 nM | TGI (SW-620 colon): 27200 nM | GI50 (NCI-H460 lung): 328 nM | TGI (NCI-H460 lung): 10600 nM | GI50 (SK-OV-3 ovarian): 567 nM | TGI (SK-OV-3 ovarian): > 100000 nM | GI50 (RPMI-8226 leukemia): 407 nM | TGI (RPMI-8226 leukemia): > 40500 nM | GI50 (MALME-3M melanoma): 462 nM | TGI (MALME-3M melanoma): 49900 nM | GI50 (SN12C renal): 377 nM | TGI (SN12C renal): 14200 nM

Reference: PubChem BioAssay (NCI)
